Data on one substance can be found in patent US9090701B2, “Methods of detecting oxidized calcium/calmodulin dependent protein kinase II” (University of Iowa Research Foundation, priority 2008, dated 2015).

One data set has as its system oxidized CaMKII. Briefly: Oxidized / phosphorylated CaMKII in hearts of treated mice (immunostaining, immunoblot). Type of data set: in vivo. The procedure: (§1) Mice were anesthetized with ketamine (87.5 mg/kg) and xylazine (12.5 mg/kg), and a small incision was made in the skin near the spine, approximately 1 cm above the hip. Minipumps containing saline or AngII (3 mg/kg/day) were inserted and the skin was sutured closed. Other mice were given, daily injections of Iso (30 mg/kg/day, intraperitoneal) for 7 days. Animals were then sacrificed and the heart was removed, fixed, and embedded in paraffin. Transverse heart sections of 5 μm thickness were made. To confirm the identity of cardiomyocytes, heart sections were immunolabeled with alpha-actinin Ig (cardiomyocyte-specific marker). Only sections with >90% cardiomyocytes were used in experiments. (See FIG. 13.) Paraffin was removed, and TUNEL staining was performed using In Situ cell death detection kits, TMR Red (Roche). Nuclei were co-stained with DAPI. To determine percent of TUNEL positive nuclei, whole heart sections were divided into four quadrants and one image was taken at random within each quadrant. In the case of sections from post-MI mice, an average of 50% of the heart quadrants were from portions of the heart adjacent to the MI. An investigator blinded to the identity and treatment of the mice counted the number of total and TUNEL positive cells in each image.
Other sections were treated with either a general CaMKII antibody or oxidized CaMKII antiserum. Nuclei were co-stained with DAPI. Identity of cardiomyocytes was confirmed by co-stain with an antibody against α-actinin. Images were quantified for relative staining intensity using Image J (NIH, USA). Each image was divided into four quadrants, and one rectangular area of equal size and shape was randomly placed within the cytosolic area of each quadrant, excluding DAPI-stained nuclei. Relative intensity of an image was judged to be the mean of the intensity measurements taken in each quadrant. Both the investigators and technical personnel assigned to immunostaining and quantification were blinded to the genetic identity and treatment of the mice in all studies.
To determine the role of CaMKII oxidation In apoptosis, mice were treated with saline, AngII, or isoproterenol (Iso) for one week, and transverse heart, sections from these mice were probed for the production of oxidized CaMKII in vivo. […] Total CaMKII immunoreactivity remained constant regardless of treatment. […] (See FIG. 6).
Homogenized hearts from mice treated with saline, AngII, or Iso, and whole heart lysates were analyzed by immunoblot for oxidized CaMKII.
Methionine oxidation is specifically reversed by MsrA (Weissbach e.g., 2002), so it was hypothesized that MsrA^−/− mice would show enhanced vulnerability to AngII-mediated CaMKII oxidation and apoptosis. In order to test this idea, MsrA^−/− and WT control mice were implanted with AngII or saline elating osmotic mini pumps. […] In order to test if CaMKII oxidation and apoptosis were regulated by NADPH oxidase and MsrA in the setting of myocardial infarction, MsrA^−/−, p47^−/−, and WT mice were subjected to myocardial infarction surgery. […] Myocardial infarction surgery was performed on a larger cohort of MsrA^−/− and WT control mice to determine if increased CaMKII oxidation and apoptosis in MsrA^−/− mice translated into poorer functional outcomes.
To test the specificity of this antiserum, Western blots of isolated CaMKII after no treatment, oxidation with H2O2, or phosphorylation with ATP were performed. CaMKII samples were probed for either total protein using a general CaMKII antibody or for oxidized CaMKII with anti-oxCaMKII antiserum. […] (See FIG. 14A). To test the efficacy of the antiserum in tissue staining, mice were treated with either saline or angiotensin II, an oxidant stimulating agent in cardiac tissue, and stained heart sections and performed immunofluorescent stains for oxidized CaMKII. […] (See FIG. 14B).

In another data set the test system is heart. Details: species or system mice. To be noted: mouse, in vivo. Here is the method: as §1, with “image. […]” for “image.”
A further data set concerns cardiomyocytes. Briefly: ROS detection with DHE in cardiomyocytes. Type of data set: cell-based, mouse. As to conditions: 100 nM. Here is the method: Changes in ROS levels in cultured primary cardiac myocytes after agonist stimulation were measured using the fluorogenic probe dihydroethidium (DHE, 5 μM, Molecular Probes), as previously described (Zimmerman e.g., 2004). DHE fluorescent images were acquired using confocal microscopy (Zeiss LSM510).
In order to validate the connection between AngII and ROS in this experimental model, isolated cardiomyocytes from WT and p47^−/− mice were treated with 100 nM AngII and monitored production of ROS by Imaging DHE, a fluorescent reporter for superoxide and hydrogen peroxide (FIG. 7C). Wild-type cardiomyocytes were incubated with fura-2 AM, a cell-permeant calcium indicator to observe changes in intracellular Ca^2+ ([Ca^2+]i).

A further data set concerns oxCaMKII. Briefly: Western blot of blood samples for oxidized CaMKII. To be noted: WT and MsrA−/− mice, sacrificed 6 hours later, N=1 per group. Type of data set: in vivo, mice. From the text:
In order to test whether the anti-oxCaMKII antiserum was suitable for detecting increased CaMKII oxidation in blood under disease conditions associated with enhanced oxidative stress, validated mouse models were utilized. […] (See FIG. 15). Western blot of blood samples and ImageJ analysis were used to quantify total and oxidized CaMKII. (See FIG. 15). […] Mice were exposed to cancer cells and treated with either saline or 2DG. Those mice that tailed to develop tumors after 60 days were labeled as controls. (See FIG. 16). Western blot of blood samples and ImageJ analysis were used to quantify total and oxidized CaMKII. (See FIG. 16). […] (See FIG. 16). Mice were divided into four groups based on the presence or absence of cancer and whether or not they received treatment. Western blot of blood samples and ImageJ analysis were used to quantify total and oxidized CaMKII. (See FIG. 18). Both cancer and varied treatments increase blood oxCaMKII in an additive manner.
For orientation: Immunoblotting shows a protein as a band on a membrane.

“angiotensin II (DRVYIHPF; Angiotensin-2; UniProt P01019 25-32, looked up) [AngII, oxidant stimulating agent in cardiac tissue]”: the “CaMKII oxidation in hearts” value with oxidized CaMKII (MsrA−/− mice, vs saline MsrA−/− and control hearts) is recorded as “significantly more CaMKII oxidation”. The “Oxidized CaMKII in heart sections” value in the data set with oxidized CaMKII (WT mice) was “more oxidized CaMKII than those treated with saline or Iso”; in the data set on oxidized CaMKII (WT mice, listed as angiotensin II), “significant staining relative to the control”; in the data set on oxidized CaMKII (p47−/− mice), “did not show increased levels of oxidized CaMKII”. The “Staining for T287-phosphorylated CaMKII in heart sections” value with oxidized CaMKII (WT mice, AngII 3 mg/kg/day 1 week) is recorded as “increased staining”; in the data set with oxidized CaMKII (p47−/− mice) it was “unaffected”. Moreover, the “Oxidized CaMKII in whole heart lysates (immunoblot)” value with oxidized CaMKII (vs saline or Iso) was “significantly increased oxidized CaMKII levels”. For the same substance, the “TUNEL staining of hearts” value with heart is given as “increased TUNEL staining”. The ROS production entry in the data set on cardiomyocytes (WT cardiomyocytes) is “significant increase in ROS production”. Further, the “ROS production (significant increase)” value in the data set with cardiomyocytes (p47−/− cardiomyocytes) is given as “not”. Besides, the “Oxidized CaMKII in blood” value in the data set with oxCaMKII was “increased oxidized CaMKII”.
